Results from patent publication US20230173067A1 (Seagen Inc., priority 2020, published 2023).

Key:
[1] = system: GXA 3054 gastric cancer PDX model; test: GXA 3054 HER2 positive gastric cancer PDX model, tumor growth inhibition; format: in vivo, Mice
Experimental: (§1) The TGI index is calculated for a particular time point (e.g., a specific number of days into an experiment or clinical trial) according to the following formula: […]
(§2) where “Tx Day 0” denotes the first day that treatment is administered (i.e., the first day that an experimental therapy or a control therapy (e.g., vehicle only) is administered) and “Tx Day X” denotes X number of days after Day 0. […] As a non-limiting example, in an experiment where study day 0 corresponds to “Tx Day 0” and the TGI index is calculated on study day 28 (i.e., “Tx Day 28”), if the mean tumor volume in both groups on study day 0 is 250 mm^3 and the mean tumor volumes in the experimental and control groups are 125 mm^3 and 750 mm^3, respectively, then the TGI index on day 28 is 125%.
(§3) Tucatinib was administered orally at a dose of 50 mg/kg twice per day for 28 days (study days 0-27). […] A vehicle-only group was included as a negative control.

[2] = system: CTG-0927 HER2 positive cholangiocarcinoma PDX model; test: CTG-0927 HER2 positive cholangiocarcinoma PDX model, tumor growth inhibition; format: in vivo, Mice; details: CTG-0927 cholangiocarcinoma PDX model
Experimental: as §1, §2, §3

[3] = system: GXA 3039 gastric cancer PDX model; test: GXA 3039 HER2 positive gastric cancer PDX model, tumor growth inhibition; format: in vivo, Mice
Experimental: as §1, §2, §3

[4] = system: CTG-0121 CRC PDX model; test: CTG-0121 HER2 positive CRC PDX model, tumor growth inhibition; format: in vivo, Mice
Experimental: as §1, §2, §3

[5] = system: CTG-0784 CRC PDX model; test: CTG-0784 HER2 positive CRC PDX model, tumor growth inhibition; format: in vivo, Mice
Experimental: as §1, §2, §3

[6] = system: NCI-H2170 cells; test: Response of NCI-H2170 cells to tucatinib in vitro; format: cell-based; details: previously demonstrated
[7] = system: GXA 3038 gastric cancer PDX model; test: GXA 3038 HER2 positive gastric cancer PDX model, tumor growth inhibition; format: in vivo, Mice
Experimental: as §1, §2, §3

[8] = system: CTG-0383 CRC PDX model; test: CTG-0383 HER2 positive CRC PDX model, tumor growth inhibition; format: in vivo, Mice
Experimental: as §1, §2, §3

[9] = system: CTG-0137 esophageal cancer PDX model; test: CTG-0137 HER2 positive esophageal cancer PDX model, tumor growth inhibition; format: in vivo, Mice
Experimental: as §1, §2, §3

[10] = system: Calu-3 cells; test: Response of Calu-3 cells to tucatinib in vitro; format: cell-based; details: previously demonstrated
[11] = system: CTG-0138 esophageal cancer PDX model; test: CTG-0138 HER2 positive esophageal cancer PDX model, tumor growth inhibition; format: in vivo, Mice
Experimental: as §1, §2, §3

[12] = system: NCI-H2170 NSCLC xenograft model; test: NCI-H2170 HER2 positive NSCLC xenograft model, tumor growth inhibition; format: in vivo, Mice
Experimental: as §1, §2
(§4) For the Calu-3 study, tucatinib was administered orally at a dose of 50 mg/kg twice per day for 21 days, beginning on study day 7. […] A vehicle-only group was included as a negative control.
For the NCI-H2170 study, tucatinib was administered orally at a dose of 50 mg/kg twice per day for 21 days, beginning on study day 18. […] A vehicle-only group was included as a negative control.

[13] = system: Calu-3 NSCLC xenograft model; test: Calu-3 HER2 positive NSCLC xenograft model, tumor growth inhibition; format: in vivo, Mice
Experimental: as §1, §2, §4

SMILES: Cc1cc(Nc2ncnc3ccc(NC4=NC(C)(C)CO4)cc23)ccc1Oc1ccn2ncnc2c1 [Tucatinib, tucatinib]
- effect on tumor growth (in words) [1]: inhibited tumor growth
- effect on tumor growth (in words) [2]: inhibited tumor growth
- effect on tumor growth (in words) [3]: inhibited tumor growth
- effect on tumor growth (in words) [4]: inhibited tumor growth
- effect on tumor growth (in words) [5]: inhibited tumor growth
- response to tucatinib in vitro [6]: good responses
- effect on tumor growth (in words) [7]: inhibited tumor growth
- effect on tumor growth (in words) [8]: inhibited tumor growth
- effect on tumor growth (in words) [9]: inhibited tumor growth
- response to tucatinib in vitro [10]: good responses
- effect on tumor growth (in words) [11]: inhibited tumor growth
- effect on tumor growth (in words) [12]: inhibited tumor growth
- effect on tumor growth (in words) [13]: inhibited tumor growth
